Data: US12655116B2, “Substituted isophthalic acid diamides” (Bayer Aktiengesellschaft, priority 2020, dated 2026)

Columns and labels:
[1] = test system: MATIN; assay: Pre-emergence herbicidal action against MATIN; assay type: in vivo, Matricaria inodora; settings: Tripleurospermum inodorum, 504 h
How it was run: (§1)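 Sandy loam pots, seeds covered with soil, then surface-treated with WP or EC formulations at 600–800 l/ha water plus 0.2% wetting agent. Greenhouse, 3 weeks. Percent damage vs untreated controls.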

[2] = test system: VERPE; assay: Pre-emergence herbicidal action against VERPE; assay type: in vivo, Veronica persica; settings: Veronica persica, 504 h, dosage 80 g/ha
How it was run: as §1

[3] = test system: ECHCG; assay: Post-emergence herbicidal action against ECHCG; assay type: in vivo, Echinochloa crus-galli; settings: Echinochloa crus-galli, 504 h, dosage 20 g/ha
How it was run: (§2)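 Visual % rating (0% = as untreated, 100% = dead) ~3 wk after spraying one-leaf-stage plants grown in sandy loam; WP/EC in water at 600–800 l/ha, 0.2% wetting agent.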

[4] = test system: SETVI; assay: Pre-emergence herbicidal action against SETVI; assay type: in vivo, Setaria viridis; settings: Setaria viridis, 504 h, dosage 80 g/ha
How it was run: as §1

[5] = test system: MATIN; assay: Post-emergence herbicidal action against MATIN; assay type: in vivo, Matricaria inodora; settings: Tripleurospermum inodorum, 504 h
How it was run: as §2

[6] = test system: AMARE; assay: Post-emergence herbicidal action against AMARE; assay type: in vivo, Amaranthus retroflexus; settings: Amaranthus retroflexus, 504 h, 20 g/ha, visual assessment about 3 weeks after treatment, 100% = plants have died, 0% = like control plants
How it was run: as §2

[7] = test system: VIOTR; assay: Post-emergence herbicidal action against VIOTR; assay type: in vivo, Viola tricolor; settings: Viola tricolor, 504 h
How it was run: as §2

[8] = test system: ALOMY; assay: Post-emergence herbicidal action against ALOMY; assay type: in vivo, Alopecurus myosuroides; settings: Alopecurus myosuroides, 504 h, dosage 20 g/ha, visual assessment about 3 weeks after treatment vs untreated controls
How it was run: as §2

[9] = test system: DIGSA; assay: Pre-emergence herbicidal action against DIGSA; assay type: in vivo, Digitaria sanguinalis; settings: Digitaria sanguinalis, 504 h
How it was run: as §1

[10] = test system: VIOTR; assay: Pre-emergence herbicidal action against VIOTR; assay type: in vivo, Viola tricolor; settings: Viola tricolor, 504 h
How it was run: as §1

[11] = test system: AMARE; assay: Pre-emergence herbicidal action against AMARE; assay type: in vivo, Amaranthus retroflexus; settings: Amaranthus retroflexus, 504 h, scored visually after 3 weeks vs untreated controls, 100% = plants have died, 0% = like control plants
How it was run: as §1

[12] = test system: POLCO; assay: Post-emergence herbicidal action against POLCO; assay type: in vivo, Polygonum convolvulus; settings: Fallopia convolvulus, 504 h, dosage 20 g/ha
How it was run: as §2

[13] = test system: AVEFA; assay: Pre-emergence herbicidal action against AVEFA; assay type: in vivo, Avena fatua; settings: Avena fatua, 504 h; 80 g/ha, pre-emergence
How it was run: as §1

[14] = test system: LOLRI; assay: Pre-emergence herbicidal action against LOLRI; assay type: in vivo, Lolium rigidum; settings: Lolium rigidum, 504 h, 80 g/ha
How it was run: as §1

[15] = test system: ABUTH; assay: Pre-emergence herbicidal action against ABUTH; assay type: in vivo, Abutilon theophrasti; settings: Abutilon theophrasti, 504 h, 80 g/ha, scored visually after 3 weeks vs untreated controls (100% = plants have died, 0% = like control plants)
How it was run: as §1

[16] = test system: ECHCG; assay: Pre-emergence herbicidal action against ECHCG; assay type: in vivo, Echinochloa crus-galli; settings: Echinochloa crus-galli, 504 h, 80 g/ha
How it was run: as §1

[17] = test system: PHBPU; assay: Post-emergence herbicidal action against PHBPU; assay type: in vivo, Pharbitis purpurea; settings: Ipomoea purpurea, 504 h, dosage 20 g/ha
How it was run: as §2

[18] = test system: SETVI; assay: Post-emergence herbicidal action against SETVI; assay type: in vivo, Setaria viridis; settings: Setaria viridis, 504 h
How it was run: as §2

[19] = test system: ABUTH; assay: Post-emergence herbicidal action against ABUTH; assay type: in vivo, Abutilon theophrasti; settings: Abutilon theophrasti, 504 h, dosage 20 g/ha, visual assessment about 3 weeks after treatment vs untreated controls
How it was run: as §2

[20] = test system: PHBPU; assay: Pre-emergence herbicidal action against PHBPU; assay type: in vivo, Pharbitis purpurea; settings: Ipomoea purpurea, 504 h, dosage 80 g/ha
How it was run: as §1

[21] = test system: ALOMY; assay: Pre-emergence herbicidal action against ALOMY; assay type: in vivo, Alopecurus myosuroides; settings: Alopecurus myosuroides, 504 h, pre-emergence
How it was run: as §1

For CCn1nnnc1NC(=O)c1ccc(Br)c(C(=O)NC2CC2)c1Cl [Example 2-179], the pest or weed control at 20 g/ha ([1]; dosage 20 g/ha) was 100%, the pest or weed control at 80 g/ha ([1]; dosage 80 g/ha) was 100% and the pest or weed control at 80 g/ha [2] was 90%. The pest or weed control at 20 g/ha [3] was 80%, the pest or weed control at 80 g/ha [4] was 100% and the pest or weed control at 5 g/ha ([5]; dosage 5 g/ha) was 80%. It also gave a pest or weed control at 20 g/ha ([5]; dosage 20 g/ha) of 90%, a pest or weed control at 20 g/ha [6] of 100% and a pest or weed control at 5 g/ha ([7]; 5 g/ha) of 90%. It also gave a pest or weed control at 20 g/ha ([7]; 20 g/ha) of 100%, a pest or weed control at 20 g/ha [8] of 90% and a pest or weed control at 20 g/ha ([9]; dosage 20 g/ha) of 100%. For the same compound, the pest or weed control at 80 g/ha ([9]; dosage 80 g/ha) was 100%, the pest or weed control at 20 g/ha ([10]; dosage 20 g/ha) was 100% and the pest or weed control at 80 g/ha ([10]; dosage 80 g/ha) was 100%. It also gave a pest or weed control at 20 g/ha ([11]; 20 g/ha) of 100%, a pest or weed control at 80 g/ha ([11]; 80 g/ha) of 100% and a pest or weed control at 20 g/ha [12] of 90%. For the same compound, the pest or weed control at 80 g/ha [13] was 100%, the pest or weed control at 80 g/ha [14] was 80% and the pest or weed control at 80 g/ha [15] was 100%. For the same compound, the pest or weed control at 80 g/ha [16] was 100%, the pest or weed control at 20 g/ha [17] was 80% and the pest or weed control at 5 g/ha ([18]; dosage 5 g/ha) was 90%. For the same compound, the pest or weed control at 20 g/ha ([18]; dosage 20 g/ha) was 90%, the pest or weed control at 20 g/ha [19] was 90% and the pest or weed control at 80 g/ha [20] was 80%. It also gave a pest or weed control at 80 g/ha ([21]; 80 g/ha, scored visually after 3 weeks vs untreated controls (100% = plants have died, 0% = like control plants)) of 100% and a pest or weed control at 20 g/ha ([21]; 20 g/ha, scored visually after 3 weeks, 100% = plants have died, 0% = like control plants) of 80%.
